Key:
Hs578T [1] = assay: Cell vitality assay (ATP assay, CellTiter-Glo); format: cell-based; settings: Homo sapiens, Hs-578T; HS578T cell line, 72 h; Table Ib; read-out: IC50 ATP-Assay HS578T after 72 h
Description: The CellTiter-Glo® Luminescent Cell Viability Assay (Promega Corporation. Madison, Wis., USA) is method a determining the number of viable cells in culture based on quantification of the ATP being present which is an indicator of metabolically active cells was used according to manufacturers protocol, In detail the assay was performed in a 96 well format were 1000 cells/well were incubated with indicated compound at concentration of 12.5 μM, 6.25 μM, 3.125 μM, 1.56 μM, 0.78 μM, 0.39 μM, 0.195 μM as well as DMSO control for 72 h in 100 μl cell culture medium. IC50 values were calculated as 50% of ATP amount compared to DMSO control.
Protocol for the CellTiter-Glo® Luminescent Cell Viability Assay • 1. Prepare opaque-walled multiwell plates with mammalian cells in culture medium, 100 μl per well for 96-well plates • 2. Prepare control wells containing medium without cells to obtain a value for background luminescence. • 3. Add the compound to be tested to experimental wells, and incubate according to culture protocol. • 4. Equilibrate the plate and its contents at room temperature for approximately 30 minutes. • 5. Add a volume of CellTiter-Glo® Reagent (Promega Corporation. Madison, Wis.) equal to the volume of cell culture medium present in each well. • 6. Mix contents for 2 minutes on an orbital shaker to induce cell lysis. • 7. Allow the plate to incubate at room temperature for 10 minutes to stabilize luminescent signal. • 8. Record luminescence on Microplate Luminometer LB96V (Berthold Tchnologies, Bad Wildbad, Germany). An integration time of 0.1 and 1 second per well

Hs578T [2] = assay: Wound healing migration assay; format: cell-based; settings: Homo sapiens, Hs-578T; HS578T cell line; Table Ib
Description: This method mimics cell migration during wound healing in vivo. The basic steps involve creating a “wound” in a cell monolayer, capturing the images at the beginning and at regular intervals during cell migration to close the wound, and comparing the images to quantify the migration rate of the cells. In detail, 150000 cell/24 well have been seeded and allowed to form a monolayer overnight. Subsequently a “wound” or “scratch” has been performed with a 1000 μl pipette tip. The STDV of wound size is normally below 10% at time point t0. The assay was stopped by fixation with 0.05% Crystal violet/20% methanol when control scratches were closed. The assay was terminated between 48 h and 72 h depending on the migration potential of the indicated cell line. The “wounds” were visualized with a Zeiss Axiovert S100 microscope (Carl Zeiss UK, Welwyn Garden City, UK). The tested compounds were used at 12.5 μM, 6.25, 3.125 μM and DMSO control. IC50 values have been calculated as 50% wound size in between t0 and t48 or t72.

Hs578T [3] = assay: Matrigel outgrowth assay/branching assay; format: cell-based; settings: Homo sapiens, Hs-578T; HS578T cell line; Table Ib; read-out: Total branching inhibition in Matrigel HS578T
Description: The Matrigel outgrowth assay is based on the ability of tumor cell to penetrate a solid gel of extracellular matrix proteins mimicking the metastasis formation in vivo. While cells with low invasive potential appear as roundish cell or cell cluster, cells with high invasive potential penetrate the Matrigel and form polymorphic structures. In detail 65 μl of Matrigel matrix (Matrigel™ Matrix, BD Biosciences, Bedford, Mass., USA) with a concentration of 3 mg/ml have been polymerized in 96 well plates for 1 h at 37° C. Subsequently 5000 cell/well were seeded into each well containing cell culture medium and indicated compound with concentrations of 3.125 μM, 1.56 μM and 0.78 μM as well as DMSO control. After 48 h, 72 h and 96 h images of cell were taken on an inverted microscope using a 5× objective (Zeiss Axiovert S100 microscope Carl Zeiss UK, Welwyn Garden City, UK). Only compound concentrations were total branching inhibition was evident were accounted as positive. Method was used as previously described, with some modifications (Thompson E W, et al. Association of increased basement membrane invasiveness with absence of estrogen receptor and expression of vimentin in human breast cancer cell lines. J Cell Physiol 1992; 150:534-44).

| Structure (SMILES) | IC50 (Hs578T [1]) [µM] | IC50 (Hs578T [2]) [µM] | IC50 (Hs578T [3]) [µM] | melting point [°C] |
| --- | --- | --- | --- | --- |
| COc1cc2c(Oc3ccc(NS(=O)(=O)c4c(C)nn(C)c4C)cc3F)ccnc2cc1OCCCN1CCC(C)CC1 [Example 160, 1,3,5-Trimethyl-1H-pyrazole-4-sulfonic acid (3-fluoro-4-{6-methoxy-7-[3-(4-methyl-piperidin-1-yl)-propoxy]-quinolin-4-yloxy}-phenyl)-amide] | ≤ 12.5 | ≤ 12.5 | 10 to 25 | 88 to 90 |
| COc1cc2c(Oc3ccc(NS(=O)(=O)c4c(C)nn(C)c4C)cc3F)ccnc2cc1OCCCN1CCOCC1 [Example 161, 1,3,5-Trimethyl-1H-pyrazole-4-sulfonic acid {3-fluoro-4-[6-methoxy-7-(3-morpholin-4-yl-propoxy)-quinolin-4-yloxy]-phenyl}-amide] | ≤ 12.5 | 12.5 to 50 | 10 to 25 | 163 to 164 |
| COc1cc2c(Oc3ccc(NS(=O)(=O)c4c(C)nn(C)c4C)cc3F)ccnc2cc1OCCCN1CCN(C)CC1 [Example 162, 1,3,5-Trimethyl-1H-pyrazole-4-sulfonic acid (3-fluoro-4-{6-methoxy-7-[3-(4-methyl-piperazin-1-yl)-propoxy]-quinolin-4-yloxy}-phenyl)-amide] | ≤ 12.5 | 12.5 to 50 | 10 to 25 | 80 to 81 |
| COc1cc2c(Oc3ccc(NS(=O)(=O)c4ccn(C)n4)cc3F)ccnc2cc1OCCCN1CCCCC1 [Example 163, 1-Methyl-1H-pyrazole-3-sulfonic acid {3-fluoro-4-[6-methoxy-7-(3-piperidin-1-yl-propoxy)-quinolin-4-yloxy]-phenyl}-amide] | ≤ 12.5 | 12.5 to 50 | 10 to 25 | 167 to 168 |
| COc1cc2c(Oc3ccc(NS(=O)(=O)c4ccn(C)n4)cc3F)ccnc2cc1OCCCN1CCC(C)CC1 [Example 164, 1-Methyl-1H-pyrazole-3-sulfonic acid (3-fluoro-4-{6-methoxy-7-[3-(4-methyl-piperidin-1-yl)-propoxy]-quinolin-4-yloxy}-phenyl)-amide] | ≤ 12.5 | 12.5 to 50 | 10 to 25 | 165 to 166 |
| COc1cc2c(Oc3ccc(NS(=O)(=O)c4ccn(C)n4)cc3F)ccnc2cc1OCCCN1CCOCC1 [Example 165, 1-Methyl-1H-pyrazole-3-sulfonic acid {3-fluoro-4-[6-methoxy-7-(3-morpholin-4-yl-propoxy)-quinolin-4-yloxy]-phenyl}-amide] | ≤ 12.5 | 12.5 to 50 | 10 to 25 | 198 to 199 |
| COc1cc2c(Oc3ccc(NS(=O)(=O)c4ccn(C)n4)cc3F)ccnc2cc1OCCCN1CCN(C)CC1 [Example 166, 1-Methyl-1H-pyrazole-3-sulfonic acid (3-fluoro-4-{6-methoxy-7-[3-(4-methyl-piperazin-1-yl)-propoxy]-quinolin-4-yloxy}-phenyl)-amide] | ≤ 12.5 | 12.5 to 50 | 10 to 25 | 157 to 159 |
| COc1cc2c(Oc3ccc(NS(=O)(=O)c4cnc(C)[nH]4)cc3F)ccnc2cc1OCCCN1CCCCC1 [Example 167, 2-Methyl-3H-imidazole-4-sulfonic acid {3-fluoro-4-[6-methoxy-7-(3-piperidin-1-yl-propoxy)-quinolin-4-yloxy]-phenyl}-amide] | 12.5 to 50 | 12.5 to 50 | 10 to 25 | 160 to 163 |
| COc1cc2c(Oc3ccc(NS(=O)(=O)c4cnc(C)[nH]4)cc3F)ccnc2cc1OCCCN1CCC(C)CC1 [Example 168, 2-Methyl-3H-imidazole-4-sulfonic acid (3-fluoro-4-{6-methoxy-7-[3-(4-methyl-piperidin-1-yl)-propoxy]-quinolin-4-yloxy}-phenyl)-amide] | 12.5 to 50 | 12.5 to 50 | 10 to 25 | 225 to 226 |
| COc1cc2c(Oc3ccc(NS(=O)(=O)c4cnc(C)[nH]4)cc3F)ccnc2cc1OCCCN1CCN(C)CC1 [Example 170, 2-Methyl-3H-imidazole-4-sulfonic acid (3-fluoro-4-{6-methoxy-7-[3-(4-methyl-piperazin-1-yl)-propoxy]-quinolin-4-yloxy}-phenyl)-amide] | 12.5 to 50 | 12.5 to 50 | 10 to 25 | 215 to 217 |
| COc1cc2c(Oc3ccc(NS(=O)(=O)c4sc(NC(C)=O)nc4C)cc3F)ccnc2cc1OCCCN(C)C [Example 183, N-(5-{4-[7-(3-Dimethylamino-propoxy)-6-methoxy-quinolin-4-yloxy]-3-fluoro-phenylsulfamoyl}-4-methyl-thiazol-2-yl)-acetamide] | 12.5 to 50 | 12.5 to 50 | 10 to 25 | 164 to 166 |
| COc1cc2c(Oc3cc(NS(=O)(=O)c4c(F)cccc4F)ccc3F)ccnc2cc1OCCCN1CCC(C)CC1 [Example 188, 2,6-Difluoro-N-(4-fluoro-3-{6-methoxy-7-[3-(4-methyl-piperidin-1-yl)-propoxy]-quinolin-4-yloxy}-phenyl)-benzenesulfonamide] | ≤ 12.5 | ≤ 12.5 | ≤ 10 | 185 to 186 |
| COc1cc2c(Oc3cc(NS(=O)(=O)c4ccccc4C(F)(F)F)ccc3F)ccnc2cc1OCCCN1CCC(C)CC1 [Example 189, N-(4-Fluoro-3-{6-methoxy-7-[3-(4-methyl-piperidin-1-yl)-propoxy]-quinolin-4-yloxy}-phenyl)-2-trifluoromethyl-benzenesulfonamide] | 12.5 to 50 | 12.5 to 50 | 10 to 25 | 175 to 177 |
| COc1cc2c(Oc3cc(NS(=O)(=O)c4ccccc4OC(F)(F)F)ccc3F)ccnc2cc1OCCCN1CCC(C)CC1 [Example 190, N-(4-Fluoro-3-{6-methoxy-7-[3-(4-methyl-piperidin-1-yl)-propoxy]-quinolin-4-yloxy}-phenyl)-2-trifluoromethoxy-benzenesulfonamide] | 12.5 to 50 | 12.5 to 50 | 10 to 25 | 80 to 82 |
| COc1cc2c(Oc3cc(NS(=O)(=O)c4c(Cl)cccc4Cl)ccc3F)ccnc2cc1OCCCN1CCC(C)CC1 [Example 192, 2,6-Dichloro-N-(4-fluoro-3-{6-methoxy-7-[3-(4-methyl-piperidin-1-yl)-propoxy]-quinolin-4-yloxy}-phenyl)-benzenesulfonamide] | ≤ 12.5 | 12.5 to 50 | 10 to 25 | 116 to 118 |
| COc1cc2c(Oc3ccc(Cl)c(NS(=O)(=O)c4ccccc4C(F)(F)F)c3)ccnc2cc1OCCCN1CCC(C)CC1 [Example 195, N-(2-Chloro-5-{6-methoxy-7-[3-(4-methyl-piperidin-1-yl)-propoxy]-quinolin-4-yloxy}-phenyl)-2-trifluoromethyl-benzenesulfonamide] | 12.5 to 50 | 12.5 to 50 | 10 to 25 | 179 to 181 |
| COc1cc2c(Oc3ccc(Cl)c(NS(=O)(=O)c4ccccc4OC(F)(F)F)c3)ccnc2cc1OCCCN1CCC(C)CC1 [Example 196, N-(2-Chloro-5-{6-methoxy-7-[3-(4-methyl-piperidin-1-yl)-propoxy]-quinolin-4-yloxy}-phenyl)-2-trifluoromethoxy-benzenesulfonamide] | 12.5 to 50 | 12.5 to 50 | 10 to 25 | 123 to 126 |

Source: US9169241B2, “Quinolinyloxyphenylsulfonamides” (Max-Planck-Gesellschaft Zur Forderung der Wissenschaften …, priority 2009, dated 2015)
